Data published in PubChem BioAssay (NCI).
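Each compound was tested at five concentrations against cells in 96-well plates for 48 hours. GI50: concentration for 50% inhibition of growth. TGI denotes the concentration required for complete inhibition of growth.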

Key:
Experiment in all cases: NCI anticancer screen, dose series, 48 h
786-0 renal = system: 786-0 renal
A498 renal = system: A498 renal
A549 NSCLC = system: A549 NSCLC
ACHN renal = system: ACHN renal
BT-549 breast = system: BT-549 breast
CAKI-1 renal = system: CAKI-1 renal
CCRF-CEM leukemia = system: CCRF-CEM leukemia
COLO 205 colon = system: COLO 205 colon
DU-145 prostate = system: DU-145 prostate
EKVX NSCLC = system: EKVX NSCLC
HCC-2998 colon = system: HCC-2998 colon
HCT-116 colon = system: HCT-116 colon
HCT-15 colon = system: HCT-15 colon
HL-60(TB) leukemia = system: HL-60(TB) leukemia
HOP-62 NSCLC = system: HOP-62 NSCLC
HOP-92 NSCLC = system: HOP-92 NSCLC
HS 578T breast = system: HS 578T breast
HT29 colon = system: HT29 colon
IGROV1 ovarian = system: IGROV1 ovarian
K-562 leukemia = system: K-562 leukemia
KM12 colon = system: KM12 colon
LOX IMVI melanoma = system: LOX IMVI melanoma
M14 melanoma = system: M14 melanoma
MALME-3M melanoma = system: MALME-3M melanoma
MCF7 breast = system: MCF7 breast
MDA-MB-231 breast = system: MDA-MB-231 breast
MDA-MB-435 = system: MDA-MB-435
MOLT-4 leukemia = system: MOLT-4 leukemia
NCI-H226 lung = system: NCI-H226 lung
NCI-H23 lung = system: NCI-H23 lung
NCI-H460 lung = system: NCI-H460 lung
NCI-H522 lung = system: NCI-H522 lung
NCI/ADR-RES ovarian = system: NCI/ADR-RES ovarian
OVCAR-4 ovarian = system: OVCAR-4 ovarian
OVCAR-5 ovarian = system: OVCAR-5 ovarian
OVCAR-8 ovarian = system: OVCAR-8 ovarian
PC-3 prostate = system: PC-3 prostate
RPMI-8226 leukemia = system: RPMI-8226 leukemia
RXF 393 renal = system: RXF 393 renal
SF-268 CNS = system: SF-268 CNS
SF-295 CNS = system: SF-295 CNS
SF-539 CNS = system: SF-539 CNS
SK-MEL-2 melanoma = system: SK-MEL-2 melanoma
SK-MEL-28 melanoma = system: SK-MEL-28 melanoma
SK-MEL-5 melanoma = system: SK-MEL-5 melanoma
SK-OV-3 ovarian = system: SK-OV-3 ovarian
SN12C renal = system: SN12C renal
SNB-19 CNS = system: SNB-19 CNS
SNB-75 CNS = system: SNB-75 CNS
SR leukemia = system: SR leukemia
SW-620 colon = system: SW-620 colon
T-47D breast = system: T-47D breast
TK-10 renal = system: TK-10 renal
U251 CNS = system: U251 CNS
UACC-257 melanoma = system: UACC-257 melanoma
UACC-62 melanoma = system: UACC-62 melanoma
UO-31 renal = system: UO-31 renal

Molecule `CC[C@]12C=CCN3CC[C@]4(C(=C(C(=O)OC)C1)Nc1cc5c(cc14)[C@@H]1[C@H](O5)[C@@H](O)[C@@]4(CC)CC(C(=O)OC)=C5Nc6cc(OC)ccc6[C@@]56CCN1[C@@H]46)[C@@H]32` has a GI50 (786-0 renal) of 92.9 nM, a TGI (786-0 renal) of 1.07 µM and a GI50 (A498 renal) of 98 nM. For the same molecule, the TGI (A498 renal) was 299 nM, the GI50 (A549 NSCLC) was 368 nM and the TGI (A549 NSCLC) was 6.94 µM. It also gave a GI50 (ACHN renal) of 174 nM, a TGI (ACHN renal) of 690 nM and a GI50 (BT-549 breast) of 230 nM. The TGI (BT-549 breast) was 2.22 µM, the GI50 (CAKI-1 renal) was 87.7 nM and the TGI (CAKI-1 renal) was 2130 nM. For the same molecule, the GI50 (CCRF-CEM leukemia) was 161 nM, the TGI (CCRF-CEM leukemia) was greater than 50 µM and the GI50 (COLO 205 colon) was 108 nM. It also gave a TGI (COLO 205 colon) of 437 nM, a GI50 (DU-145 prostate) of 591 nM and a TGI (DU-145 prostate) greater than 20.4 µM. For the same molecule, the GI50 (EKVX NSCLC) was 253 nM, the TGI (EKVX NSCLC) was 12.3 µM and the GI50 (HCC-2998 colon) was 130 nM. The TGI (HCC-2998 colon) was 557 nM, the GI50 (HCT-116 colon) was 102 nM and the TGI (HCT-116 colon) was 352 nM. It also gave a GI50 (HCT-15 colon) of 137 nM, a TGI (HCT-15 colon) of 511 nM and a GI50 (HL-60(TB) leukemia) of 58.3 nM. It also gave a GI50 (HOP-62 NSCLC) of 189 nM, a TGI (HOP-62 NSCLC) of 3.12 µM and a GI50 (HOP-92 NSCLC) of 70.9 nM. It also gave a TGI (HOP-92 NSCLC) of 4.05 µM, a GI50 (HS 578T breast) of 211 nM and a TGI (HS 578T breast) greater than 50 µM. The GI50 (HT29 colon) was 161 nM, the TGI (HT29 colon) was 1810 nM and the GI50 (IGROV1 ovarian) was 152 nM. For the same molecule, the TGI (IGROV1 ovarian) was 2010 nM, the GI50 (K-562 leukemia) was 117 nM and the TGI (K-562 leukemia) was greater than 50 µM. For the same molecule, the GI50 (KM12 colon) was 231 nM, the TGI (KM12 colon) was 3.23 µM and the GI50 (LOX IMVI melanoma) was 29.6 nM. It also gave a TGI (LOX IMVI melanoma) of 105 nM, a GI50 (M14 melanoma) of 163 nM and a TGI (M14 melanoma) of 3.14 µM. It also gave a GI50 (MALME-3M melanoma) of 187 nM, a TGI (MALME-3M melanoma) of 3.8 µM and a GI50 (MCF7 breast) of 121 nM. It also gave a TGI (MCF7 breast) greater than 16.5 µM, a GI50 (MDA-MB-231 breast) of 163 nM and a TGI (MDA-MB-231 breast) greater than 11.4 µM. For the same molecule, the GI50 (MDA-MB-435) was 173 nM, the TGI (MDA-MB-435) was 1460 nM and the GI50 (MOLT-4 leukemia) was 190 nM. For the same molecule, the TGI (MOLT-4 leukemia) was greater than 50 µM, the GI50 (NCI-H226 lung) was 160 nM and the TGI (NCI-H226 lung) was 4.3 µM. It also gave a GI50 (NCI-H23 lung) of 171 nM, a TGI (NCI-H23 lung) of 805 nM and a GI50 (NCI-H460 lung) of 407 nM. It also gave a TGI (NCI-H460 lung) of 5.55 µM, a GI50 (NCI-H522 lung) of 109 nM and a TGI (NCI-H522 lung) of 349 nM. For the same molecule, the GI50 (NCI/ADR-RES ovarian) was 388 nM, the TGI (NCI/ADR-RES ovarian) was greater than 50 µM and the GI50 (OVCAR-4 ovarian) was 181 nM. The TGI (OVCAR-4 ovarian) was greater than 50 µM, the GI50 (OVCAR-5 ovarian) was 294 nM and the TGI (OVCAR-5 ovarian) was 5.34 µM. It also gave a GI50 (OVCAR-8 ovarian) of 199 nM, a TGI (OVCAR-8 ovarian) of 2470 nM and a GI50 (PC-3 prostate) of 225 nM. The TGI (PC-3 prostate) was 5.14 µM, the GI50 (RPMI-8226 leukemia) was 133 nM and the TGI (RPMI-8226 leukemia) was 576 nM. For the same molecule, the GI50 (RXF 393 renal) was 0.15 µM, the TGI (RXF 393 renal) was 0.613 µM and the GI50 (SF-268 CNS) was 343 nM. It also gave a TGI (SF-268 CNS) of 11.7 µM, a GI50 (SF-295 CNS) of 250 nM and a TGI (SF-295 CNS) of 13.8 µM. For the same molecule, the GI50 (SF-539 CNS) was 147 nM, the TGI (SF-539 CNS) was 1330 nM and the GI50 (SK-MEL-2 melanoma) was 229 nM. It also gave a TGI (SK-MEL-2 melanoma) of 2930 nM, a GI50 (SK-MEL-28 melanoma) of 457 nM and a TGI (SK-MEL-28 melanoma) of 3.26 µM. It also gave a GI50 (SK-MEL-5 melanoma) of 227 nM, a TGI (SK-MEL-5 melanoma) of 2980 nM and a GI50 (SK-OV-3 ovarian) of 167 nM. The TGI (SK-OV-3 ovarian) was 0.706 µM, the GI50 (SN12C renal) was 236 nM and the TGI (SN12C renal) was 5.96 µM. For the same molecule, the GI50 (SNB-19 CNS) was 300 nM, the TGI (SNB-19 CNS) was 14.9 µM and the GI50 (SNB-75 CNS) was 345 nM. It also gave a TGI (SNB-75 CNS) of 4.44 µM, a GI50 (SR leukemia) of 137 nM and a TGI (SR leukemia) of 2820 nM. The GI50 (SW-620 colon) was 177 nM, the TGI (SW-620 colon) was 1260 nM and the GI50 (T-47D breast) was 155 nM. For the same molecule, the TGI (T-47D breast) was 1330 nM, the GI50 (TK-10 renal) was 128 nM and the TGI (TK-10 renal) was 1050 nM. For the same molecule, the GI50 (U251 CNS) was 174 nM, the TGI (U251 CNS) was 877 nM and the GI50 (UACC-257 melanoma) was 183 nM. It also gave a TGI (UACC-257 melanoma) of 3.72 µM, a GI50 (UACC-62 melanoma) of 103 nM and a TGI (UACC-62 melanoma) of 1630 nM. The GI50 (UO-31 renal) was 131 nM and the TGI (UO-31 renal) was 2180 nM.

With `N#C/C(=C\c1ccc(-c2ccc(Cl)cc2)o1)C(=O)Nc1ncc(Cc2ccc(Br)cc2)s1` the GI50 (786-0 renal) was 2450 nM, the TGI (786-0 renal) was 6.8 µM and the GI50 (BT-549 breast) was 1840 nM. It also gave a TGI (BT-549 breast) of 8.69 µM, a GI50 (HOP-62 NSCLC) of 2470 nM and a TGI (HOP-62 NSCLC) greater than 100 µM. It also gave a GI50 (HOP-92 NSCLC) of 1130 nM, a TGI (HOP-92 NSCLC) of 8.28 µM and a GI50 (HS 578T breast) of 1230 nM. It also gave a TGI (HS 578T breast) of 6.27 µM, a GI50 (IGROV1 ovarian) of 2890 nM and a TGI (IGROV1 ovarian) greater than 100000 nM. For the same molecule, the GI50 (K-562 leukemia) was 4470 nM, the TGI (K-562 leukemia) was greater than 100 µM and the GI50 (MALME-3M melanoma) was 1550 nM. For the same molecule, the TGI (MALME-3M melanoma) was 4.26 µM, the GI50 (MDA-MB-231 breast) was 3380 nM and the TGI (MDA-MB-231 breast) was greater than 100 µM. For the same molecule, the GI50 (NCI-H522 lung) was 2640 nM, the TGI (NCI-H522 lung) was greater than 100000 nM and the GI50 (RXF 393 renal) was 8.85 µM. For the same molecule, the TGI (RXF 393 renal) was 33.7 µM, the GI50 (SF-268 CNS) was 3730 nM and the TGI (SF-268 CNS) was greater than 100 µM. The GI50 (SF-295 CNS) was 5220 nM, the TGI (SF-295 CNS) was 51.5 µM and the GI50 (SK-OV-3 ovarian) was 3920 nM. For the same molecule, the TGI (SK-OV-3 ovarian) was 25.9 µM, the GI50 (SNB-19 CNS) was 3580 nM and the TGI (SNB-19 CNS) was greater than 100 µM. The GI50 (SNB-75 CNS) was 794 nM, the TGI (SNB-75 CNS) was 3.83 µM and the GI50 (UACC-62 melanoma) was 2950 nM. It also gave a TGI (UACC-62 melanoma) greater than 100000 nM.
